Results taken from patent US20210093531A1, “DERIVATIVES OF MENTHOL AND USES THEREOF” (Board of Trustees of Northern Illinois University, priority 2019, published 2021).
Marks after values point to notes of the source that are not given here.

Legend:
trained panelists [1] = assay: time-intensity analysis of cooling, mouthwash application; format: in vivo; details: for Iext (cooling intensity at end of evaluation): 15 minutes after expectoration
Experimental: In order to evaluate the potential use of menthol glycinates as […] different food, beverage and oral hygiene products, select compounds were incorporated in different application systems. A beverage model system, a lozenge and a mouthwash application were created, and time-intensity analysis was performed using trained discrimination analysis panelists. Time-Intensity (TI) is a temporal sensory method. During TI evaluations, assessors are asked to score the intensity of perception of a single attribute over consumption of the product. Compared to single point measurements, TI analysis can characterize the onset, decline and rates thereof, of particular sensory characteristics. This analysis may reveal rich information regarding the intensity of an attribute over the time domain and identify temporal perceptual differences among samples that can greatly impact the overall profile of a product. For each sample evaluation, a temporal curve is generated, based on duplication. The temporal curves for each panelist are combined to generate a combined curve for each product that is evaluated. The following distinct parameters were calculated: Imax: peak intensity or maximum observed intensity on the whole curve; […]: time point where the reaction to the stimulus is first perceived on the curve; Tmax: time position of the peak intensity on the curve; Tplateau: protraction of maximum intensity or duration of maximum intensity; Text: time point of extinction of the perception of the stimulus, defined as the position in time after the peak intensity where the measured intensity disappears (or the end of evaluation window); Iext: intensity at time of extinction or end of evaluation; R increase: slope or rate of intensity increase between […] and Tmax; R decrease: slope or rate of intensity decrease between Tmax and Text; and Area: the total area under the time-intensity curve. The formula shown in Table 8 was employed to create a mouthwash product to evaluate […] of interest using time-Intensity analysis. [table] The following test compounds were evaluated: menthol, XI-I-60, RK-2-10, XI-I-65, DK-1-50, and XI-2-73. For time-intensity (T-I) evaluation of the cooling attributes of mouthwash products, 8 panelists were recruited (2 male, 6 female). Panelists were trained in basic taste descriptive analysis. A sweetness reference series (intensity range 2-12) was provided to be used as cross-modality reference to aid in scaling the intensity of the cooling attribute present in the mouthwash samples. Panelists evaluated samples in duplicates and all sample were presented blinded and in a randomized order using a 3-digit code. Panelist evaluated 15 ml of mouthwash at a time and were instructed to rinse for 30 seconds and expectorate. Panelists were instructed to provide cooling intensities before and after expectoration. For the time before expectoration, evaluation started upon introducing the sample and every 10 seconds thereafter. After expectoration, the evaluation continued for 15 minutes and panelists provided cooling intensity ratings at predetermined times. Due to the unique nature of this product and the interest in prolonging the cooling attribute long after consumption, an additional parameter led was evaluated among samples via ANOVA. This parameter is the cooling intensity at time of extinction or in our case the end of evaluation. Data analysis for generation of T-I statistics and ANOVA analysis to determine significant difference among samples was performed using R STUDIO.

trained panelists [2] = assay: time-intensity analysis of cooling, beverage model system; format: in vivo; details: 100 ppm, 2-minute window
Experimental: In order to evaluate the potential use of menthol glycinates as […] different food, beverage and oral hygiene products, select compounds were incorporated in different application systems. A beverage model system, a lozenge and a mouthwash application were created, and time-intensity analysis was performed using trained discrimination analysis panelists. Time-Intensity (TI) is a temporal sensory method. During TI evaluations, assessors are asked to score the intensity of perception of a single attribute over consumption of the product. Compared to single point measurements, TI analysis can characterize the onset, decline and rates thereof, of particular sensory characteristics. This analysis may reveal rich information regarding the intensity of an attribute over the time domain and identify temporal perceptual differences among samples that can greatly impact the overall profile of a product. For each sample evaluation, a temporal curve is generated, based on duplication. The temporal curves for each panelist are combined to generate a combined curve for each product that is evaluated. The following distinct parameters were calculated: Imax: peak intensity or maximum observed intensity on the whole curve; […]: time point where the reaction to the stimulus is first perceived on the curve; Tmax: time position of the peak intensity on the curve; Tplateau: protraction of maximum intensity or duration of maximum intensity; Text: time point of extinction of the perception of the stimulus, defined as the position in time after the peak intensity where the measured intensity disappears (or the end of evaluation window); Iext: intensity at time of extinction or end of evaluation; R increase: slope or rate of intensity increase between […] and Tmax; R decrease: slope or rate of intensity decrease between Tmax and Text; and Area: the total area under the time-intensity curve. The formula detailed in Table 6 was employed to create a simple beverage model system to evaluate menthol glycinates of interest using time-intensity analysis. [table] For time-intensity (T-I) evaluation of the cooling attribute of the model beverage system 8 panelists were recruited (2 male, 6 female). Panelists were trained in basic taste descriptive analysis. A sweetness reference series (intensity range 2-12) was provided to be used as cross-modality reference to aid in scaling the intensity of the cool attribute present in the model beverage samples. Panelists evaluated samples in duplicates and all sample were presented blinded and in a randomized order using a 3-digit code. Panelists were instructed to hold the sample in their mouths for 30 seconds and then expectorate. During the hold period panelists were instructed to note cooling onset and intensity. After expectorating, the panelists continued to report cooling intensity at predetermined time points throughout an evaluation window of 2 minutes. Samples were presented pre-weighted, and panelists were instructed to evaluate the entire amount of sample to ensure uniformity among panelists and replicate evaluations. Evaluations were performed with at least 4 hours between them to ensure no carry over. Data analysis for generation of T-I statistics and ANOVA analysis to determine significant difference among samples was performed using R STUDIO.

[3] = after expectoration for 15 minutes (Table 9b)
[4] = rinse phase 30 seconds (Table 9a)

Row | Molecule | Iext (cooling intensity at end of evaluation) (trained panelists [1]) | AUC (trained panelists [1]; [3]) | I max (trained panelists [1]; [3]) | Rdec (trained panelists [1]; [3]) | Rinc (trained panelists [1]; [3]) | Tmax (trained panelists [1]; [3]) | Tstart (trained panelists [1]; [3]) | AUC (trained panelists [1]; [4]) | Imax (trained panelists [1]; [4]) | Rinc (trained panelists [1]; [4]) | Tstart (trained panelists [1]; [4]) | Rdec (trained panelists [2]) | Rinc (trained panelists [2]) | Tstart (trained panelists [2]) | Rdec (trained panelists [1]; [4]) | Imax (peak cooling intensity) (trained panelists [2]; 2% propylene glycol in water) | AUC (trained panelists [2]) | Tplateau (duration of maximum intensity) (trained panelists [2])
1 | (1R,2S,5R)-2-Isopropyl-5-methylcyclohexyl 2-(isopropylamino)acetate [Product 7] | 1.23^a | 4344.50^ac | 12.33^ab | −0.01^b | 0.00^a | 36.00^a | 30.00^a | 170.50^a | 12.43^a | 0.20^a | 11.00^a | 0.02^a | 0.06^b | 16^c | – | – | – | –
2 | CC1CCC(C(C)C)C(O)C1 (stereo not drawn) [Menthol, menthol] | 1^a | 3608.38^a | 12.01^a^ | −0.03^a | 0.00^a | 33.53^a | 30.00^a | 168.97^a | 12.56^a | 0.21^a | 10.88^a | 0.03^a | 0.12^a | 10^a | −0.09^a | 5^a | 429.1^a | 23.3^a
3 | CC(C)[C@@H]1CC[C@@H](C)C[C@H]1OC(=O)CN(C)C(C)C [Product 16, (1R,2S,5R)-2-Isopropyl-5-methylcyclohexyl 2-(isopropyl(methyl)amino)acetate] | 2.33^b | 5565.00^b | 13.37^ab | −0.01^b | 0.03^b | 32.73^a | 30.00^a | 180.91^a | 13.09^a | 0.23^a | 10.00^a | 0.02^a | 0.05^b | 16^c | 0.00^b | – | – | –
4 | CCCCN(CCCC)CC(=O)O[C@@H]1C[C@H](C)CC[C@H]1C(C)C [Product 10, (1R,2S,5R)-2-Isopropyl-5-methylcyclohexyl 2-(dibutylamino)acetate] | 0.9^a | 4105.91^ac | 12.65^ab | −0.01^b | – | 30.00^a | 30.00^a | 182.05^a | 12.82^a | 0.18^b | 10.91^a | 0.06^a | 0.04^b | 6.1^b | – | – | – | –
